From US20210138055A1, “COMPOSITIONS, METHODS AND USES FOR MODULATING THE TUMOR MICROENVIRONMENT TO ENHANCE ANTITUMOR IMMUNITY” (COLORADO STATE UNIVERSITY RESEARCH FOUNDATION, priority 2018, published 2021)

Test system: monocytes from healthy dogs
Experiment: Monocyte migration inhibition in vitro
Conditions: at relevant serum concentrations (levels achieved by oral dosing); compared to positive and negative controls; FIG. 4

Row | Compound | monocyte migration inhibitory activity
1 | CC(C)NCC(O)COc1cccc2ccccc12 (centres unmarked) [propranolol] | significant inhibitory activity
2 | CCCCc1nc(Cl)c(CO)n1Cc1ccc(-c2ccccc2-c2nn[nH]n2)cc1 [losartan] | significant inhibitory activity
